Columns and labels:
Assay in all cases: relative viability (nuclei count vs DMSO), 5 days (fraction); higher = more cells survive
[1] = compound: C1/C(=C\C2=CC=CS2)/C(=O)/C(=C/C3=CC=CS3)/C1 + CCNC(=O)c1noc(-c2cc(C(C)C)c(O)cc2O)c1-c1ccc(CN2CCOCC2)cc1 [Luminespib] (partner 0.01 µM)
In short: (§1)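 Cells from lung cancer lines were seeded into 1536-well plates and, one day later, dosed by pin tool. Treatments were either a single drug or a fixed dose of an anchor drug with five library-drug doses (not always all listed) in √10 steps. After 5 days, nuclei were stained in a one-step fixation (final 0.05% Triton X-100, 1% formaldehyde, 1 ug/ml Hoechst) and counted on 4× images, and relative viability is the treated-to-vehicle nuclei ratio, as the median of duplicate plates.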

TPCA-1 + Decitabine = compound: C1=CC(=CC=C1C2=CC(=C(S2)NC(=O)N)C(=O)N)F [TPCA-1] + Nc1ncn([C@H]2C[C@H](O)[C@@H](CO)O2)c(=O)n1 [Decitabine] (partner 2 µM)
In short: as §1

TPCA-1 + Vorinostat = compound: C1=CC(=CC=C1C2=CC(=C(S2)NC(=O)N)C(=O)N)F [TPCA-1] + O=C(CCCCCCC(=O)Nc1ccccc1)NO [Vorinostat] (partner 1 µM)
In short: as §1

[2] = compound: C[C@]12O[C@H](C[C@]1(O)CO)n1c3ccccc3c3c4c(c5c6ccccc6n2c5c31)CNC4=O [Lestaurtinib] + CC(C)C[C@H](NC(=O)[C@H](Cc1ccccc1)NC(=O)c1cnccn1)B(O)O [Bortezomib] (partner 0.002 µM)
In short: as §1

| Cell Line | relative viability ([1]; first compound 0.2 µM) | relative viability ([1]; first compound 0.6325 µM) | relative viability ([1]; first compound 2 µM) | relative viability ([1]; first compound 6.325 µM) | relative viability ([1]; first compound 20 µM) | relative viability (TPCA-1 + Decitabine; first compound 0.04 µM) | relative viability (TPCA-1 + Decitabine; first compound 0.1265 µM) | relative viability (TPCA-1 + Decitabine; first compound 0.4 µM) | relative viability (TPCA-1 + Decitabine; first compound 1.265 µM) | relative viability (TPCA-1 + Decitabine; first compound 4 µM) | relative viability (TPCA-1 + Vorinostat; first compound 0.04 µM) | relative viability (TPCA-1 + Vorinostat; first compound 0.1265 µM) | relative viability (TPCA-1 + Vorinostat; first compound 0.4 µM) | relative viability (TPCA-1 + Vorinostat; first compound 1.265 µM) | relative viability (TPCA-1 + Vorinostat; first compound 4 µM) | relative viability ([2]; first compound 0.005 µM) | relative viability ([2]; first compound 0.01581 µM) | relative viability ([2]; first compound 0.05 µM) | relative viability ([2]; first compound 0.1581 µM) | relative viability ([2]; first compound 0.5 µM) |
| --- | --- | --- | --- | --- | --- | --- | --- | --- | --- | --- | --- | --- | --- | --- | --- | --- | --- | --- | --- | --- |
| NCI-H1755 | 0.51 | 0.402 | 0.642 | 0.341 | 0.274 | 0.649 | 0.709 | 0.709 | 0.688 | 0.67 | 0.717 | 0.84 | 0.813 | 0.667 | 0.554 | 1.01 | 0.95 | 0.938 | 0.455 | 0.371 |
| NCI-H1915 | 0.851 | 0.786 | 0.741 | 0.356 | 0.821 | 0.266 | 0.253 | 0.258 | 0.255 | 0.251 | 0.541 | 0.5 | 0.537 | 0.392 | 0.386 | 0.971 | 1.06 | 0.6 | 0.949 | 0.284 |
| NCI-H1975 | 0.313 | 0.163 | 0.194 | 0.312 | 0.177 | 0.393 | 0.343 | 0.403 | 0.387 | 0.188 | 0.724 | 0.699 | 0.712 | 0.632 | 0.444 | 0.467 | 0.368 | 0.345 | 0.318 | 0.217 |
| NCI-H1993 | 0.727 | 0.765 | 0.726 | 0.763 | 1.78 | 0.604 | 0.541 | 0.541 | 0.584 | 0.508 | 0.877 | 0.74 | 0.921 | 0.694 | 0.533 | 1.11 | 1 | 1.45 | 0.788 | 0.594 |
| NCI-H2009 | 1.05 | 1.05 | 0.941 | 0.741 | 1.03 | 0.412 | 0.392 | 0.377 | 0.423 | 0.392 | 0.746 | 0.785 | 0.693 | 0.757 | 0.675 | 1.01 | 0.967 | 0.801 | 0.755 | 0.167 |
| NCI-H2023 | 0.864 | 0.642 | 0.735 | 0.515 | 0.677 | 0.256 | 0.195 | 0.228 | 0.227 | 0.182 | 0.634 | 0.608 | 0.772 | 0.506 | 0.241 | 1.03 | 1.11 | 0.731 | 0.65 | 0.108 |
| NCI-H2085 | 0.446 | 0.433 | 0.453 | 0.41 | 0.503 | – | 0.531 | 0.618 | 0.579 | 0.665 | – | 0.803 | 0.803 | 0.781 | 0.514 | 1 | 0.969 | 0.973 | 1.33 | 0.803 |
| NCI-H2087 | 0.215 | 0.161 | 0.177 | 0.133 | 0.158 | 0.255 | 0.222 | 0.311 | 0.335 | 0.152 | 0.734 | 0.759 | 0.911 | 0.629 | 0.266 | 0.882 | 0.936 | 0.745 | 0.764 | 0.354 |
| NCI-H2126 | 0.952 | 0.84 | 0.963 | 0.804 | 0.867 | 0.582 | 0.577 | 0.632 | 0.614 | 0.514 | 0.843 | 0.695 | 0.891 | 0.559 | 0.238 | 1.19 | 1.11 | 0.957 | 1.17 | 0.861 |
